{"source": "paper PMC12040184", "about": "“Zebrafish Polymerase Theta and human Polymerase Theta: Orthologues with homologous function” (PLOS One, 2025)", "molecules": {"B1": {"name": "25/40 dsDNA undamaged (dsDNA)", "DNA 1": "TTTGCCTTGACCATGTAACAGAGAG", "DNA 2": "TCTCTTCTCTCACTCACGCTCTCTGTTACATGGTCAAGGC"}}, "key": {"[1]": {"biological_target": "T1, hPol θ PD (Homo sapiens, UniProt O75417)", "T1 construct": "gene POLQ; pSUMO3 (POLQM1) vector, 6xHis-SUMO tag cut off; E. coli; ~90 kDa", "T1 sequence (O75417 1791-2590)": "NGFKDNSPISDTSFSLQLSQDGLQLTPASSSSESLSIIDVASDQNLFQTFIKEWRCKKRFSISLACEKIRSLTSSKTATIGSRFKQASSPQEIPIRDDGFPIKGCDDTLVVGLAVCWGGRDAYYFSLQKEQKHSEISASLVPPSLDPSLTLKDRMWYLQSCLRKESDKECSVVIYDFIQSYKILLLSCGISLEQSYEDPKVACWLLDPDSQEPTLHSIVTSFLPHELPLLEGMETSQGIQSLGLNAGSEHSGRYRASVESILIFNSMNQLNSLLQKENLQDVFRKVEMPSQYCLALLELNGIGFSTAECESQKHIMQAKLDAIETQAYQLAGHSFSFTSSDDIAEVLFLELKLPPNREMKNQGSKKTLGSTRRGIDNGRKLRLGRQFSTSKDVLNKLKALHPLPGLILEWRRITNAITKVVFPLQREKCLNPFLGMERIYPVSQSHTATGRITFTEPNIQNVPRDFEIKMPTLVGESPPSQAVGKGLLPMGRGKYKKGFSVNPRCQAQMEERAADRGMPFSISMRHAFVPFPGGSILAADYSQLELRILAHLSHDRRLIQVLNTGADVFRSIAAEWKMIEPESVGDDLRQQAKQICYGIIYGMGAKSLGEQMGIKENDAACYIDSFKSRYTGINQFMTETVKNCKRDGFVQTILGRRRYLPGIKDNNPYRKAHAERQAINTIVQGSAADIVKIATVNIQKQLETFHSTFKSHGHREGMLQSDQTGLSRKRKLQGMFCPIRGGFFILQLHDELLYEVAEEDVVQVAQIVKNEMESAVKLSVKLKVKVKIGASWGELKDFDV", "assay": "primer extension, denaturing gel", "type": "biochemical"}, "[2]": {"biological_target": "T2, zPol theta PD (DNA polymerase theta polymerase domain) (zebrafish, UniProt F1Q4P4 1832-2576)", "T2 sequence": "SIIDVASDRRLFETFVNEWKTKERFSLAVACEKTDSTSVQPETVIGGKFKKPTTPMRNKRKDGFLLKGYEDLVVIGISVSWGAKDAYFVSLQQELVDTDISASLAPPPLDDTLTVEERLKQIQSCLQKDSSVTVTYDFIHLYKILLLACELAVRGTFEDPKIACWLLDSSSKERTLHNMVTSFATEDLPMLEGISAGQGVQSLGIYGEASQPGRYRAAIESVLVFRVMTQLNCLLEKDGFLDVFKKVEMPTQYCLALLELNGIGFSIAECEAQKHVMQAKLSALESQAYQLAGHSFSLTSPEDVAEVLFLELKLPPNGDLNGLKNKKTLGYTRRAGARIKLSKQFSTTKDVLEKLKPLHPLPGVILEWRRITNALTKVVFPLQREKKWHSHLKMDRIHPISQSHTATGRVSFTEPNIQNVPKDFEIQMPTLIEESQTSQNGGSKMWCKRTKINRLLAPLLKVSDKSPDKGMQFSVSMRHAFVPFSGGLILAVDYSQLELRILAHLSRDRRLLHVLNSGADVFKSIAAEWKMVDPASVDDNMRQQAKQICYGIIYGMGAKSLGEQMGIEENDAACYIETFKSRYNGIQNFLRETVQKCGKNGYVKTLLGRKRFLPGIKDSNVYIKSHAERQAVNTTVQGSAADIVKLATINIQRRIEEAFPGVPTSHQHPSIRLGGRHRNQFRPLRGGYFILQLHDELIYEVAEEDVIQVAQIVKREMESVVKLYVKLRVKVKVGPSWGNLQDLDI", "assay": "EMSA; 10 nM DNA, 0-1000 nM protein; binding buffer (composition not given in the material), 1 h at room temperature, 6% native PAGE", "conditions": "protein: recombinant; tags: 6xHis-SUMO, cleaved off (untagged); label: 5'-6-FAM on strand 1 (25-mer primer); primer-template, 22 bp; 5' overhang 18 nt on template, 3 nt unpaired 5' TTT on primer"}}, "data": [{"molecule": "Nc1ccn([C@H]2C[C@H](O)[C@@H](COP(=O)(O)OP(=O)(O)OP(=O)(O)O)O2)c(=O)n1", "note": "[dCTP]", "values": [{"measurement": "primer extension, denaturing gel", "setting": "[1]; 25/40 dsDNA, templating G, MgCl2 or MnCl2, pH 8.0, 37 °C, steady state", "result": "Both enzymes were able to incorporate single nucleotides, correct and incorrect as well"}]}, {"molecule": "Nc1ncnc2c1ncn2[C@H]1C[C@H](O)[C@@H](COP(=O)(O)OP(=O)(O)OP(=O)(O)O)O1", "note": "[dATP]", "values": [{"measurement": "primer extension, denaturing gel", "setting": "[1]; CPD (T-T dimer) 24/33 DNA, 10 mM MgCl2 or MnCl2, pH 8.0, 37 °C, single turnover", "result": "Both enzymes were able to readily insert opposite a T-T dimer"}]}, {"molecule": "B1", "values": [{"measurement": "Kd", "setting": "[2]", "result": "19.8 ± 3.1", "unit": "nM"}]}]}
